Here are results for ten compounds from ChEMBL document CHEMBL4422622, “Identification of Mineralocorticoid Receptor Modulators with Low Impact on Electrolyte Homeostasis but Maintained Organ Protection” (J Med Chem, 2019).

Data set [1] is described as follows: Kinetic solubility of compound at pH 7.4 after 24 hrs by shake-flask assay. The note with it: buffer, read-out: -log(solubility) (converted). Type of data set: physicochemical.
Data set [2] is described as follows: Intrinsic clearance in human liver microsomes at 1 uM measured up to 30 mins in presence of NADPH by LC-MS/MS analysis. The data set is classed as ADME, Microsome. The note with it: read-out: CLH.
Data set [3] addresses T1, Mineralocorticoid receptor (Homo sapiens, UniProt P08235).
T1 sequence (P08235 whole entry): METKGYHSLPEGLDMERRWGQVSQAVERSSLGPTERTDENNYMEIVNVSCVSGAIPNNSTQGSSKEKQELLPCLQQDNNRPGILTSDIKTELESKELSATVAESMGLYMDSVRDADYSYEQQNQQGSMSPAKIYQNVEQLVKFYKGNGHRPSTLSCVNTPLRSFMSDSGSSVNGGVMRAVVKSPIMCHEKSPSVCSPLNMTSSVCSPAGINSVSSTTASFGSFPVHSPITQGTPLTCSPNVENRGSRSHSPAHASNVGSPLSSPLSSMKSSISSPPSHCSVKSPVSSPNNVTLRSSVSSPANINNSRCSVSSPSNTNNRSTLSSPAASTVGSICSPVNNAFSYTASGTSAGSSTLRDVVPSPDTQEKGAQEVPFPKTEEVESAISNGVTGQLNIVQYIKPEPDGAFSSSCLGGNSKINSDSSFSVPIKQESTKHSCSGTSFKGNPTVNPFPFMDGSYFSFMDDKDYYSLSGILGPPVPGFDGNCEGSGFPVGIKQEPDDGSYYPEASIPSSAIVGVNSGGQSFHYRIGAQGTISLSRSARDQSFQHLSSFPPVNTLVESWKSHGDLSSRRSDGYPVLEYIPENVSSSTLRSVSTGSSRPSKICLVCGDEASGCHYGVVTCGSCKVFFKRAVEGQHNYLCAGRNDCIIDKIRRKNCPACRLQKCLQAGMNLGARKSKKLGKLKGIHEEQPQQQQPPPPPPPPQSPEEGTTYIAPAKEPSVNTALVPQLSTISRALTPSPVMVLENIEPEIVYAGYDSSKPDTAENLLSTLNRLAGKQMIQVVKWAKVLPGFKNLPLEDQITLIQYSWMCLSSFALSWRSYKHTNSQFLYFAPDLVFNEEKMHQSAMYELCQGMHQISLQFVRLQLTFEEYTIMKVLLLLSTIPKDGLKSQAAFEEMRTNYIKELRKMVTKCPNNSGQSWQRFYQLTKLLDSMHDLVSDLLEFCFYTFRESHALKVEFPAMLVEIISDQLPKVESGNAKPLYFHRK
Description: Displacement of [3H]-aldosterone to human mineralocorticoid receptor LBD by radiometric binding assay

Data set [4] in a line: Octanol-water partitioning co-efficient, log D of the compound at pH 7.4 by LC/MS/MS analysis. The data set is classed as physicochemical.
The target in data set [5] is T1, Mineralocorticoid receptor. The source holds these as a separate data set.
Description: Antagonist activity at gal4-fused human mineralocorticoid receptor LBD expressed in UAS-MR-bla HEK293 cells by luciferase reporter gene assay
Data set [6] can be described thus: Intrinsic clearance in human hepatocytes assessed per million cells at 1 uM measured up to 120 mins in presence of NADPH by LC-MS/MS analysis. Type of data set: ADME, cell-based, Hepatocyte. Particulars: read-out: CLH.
A further data set has as its target T2, Glucocorticoid receptor (Homo sapiens, UniProt P04150).
T2 sequence (P04150 whole entry): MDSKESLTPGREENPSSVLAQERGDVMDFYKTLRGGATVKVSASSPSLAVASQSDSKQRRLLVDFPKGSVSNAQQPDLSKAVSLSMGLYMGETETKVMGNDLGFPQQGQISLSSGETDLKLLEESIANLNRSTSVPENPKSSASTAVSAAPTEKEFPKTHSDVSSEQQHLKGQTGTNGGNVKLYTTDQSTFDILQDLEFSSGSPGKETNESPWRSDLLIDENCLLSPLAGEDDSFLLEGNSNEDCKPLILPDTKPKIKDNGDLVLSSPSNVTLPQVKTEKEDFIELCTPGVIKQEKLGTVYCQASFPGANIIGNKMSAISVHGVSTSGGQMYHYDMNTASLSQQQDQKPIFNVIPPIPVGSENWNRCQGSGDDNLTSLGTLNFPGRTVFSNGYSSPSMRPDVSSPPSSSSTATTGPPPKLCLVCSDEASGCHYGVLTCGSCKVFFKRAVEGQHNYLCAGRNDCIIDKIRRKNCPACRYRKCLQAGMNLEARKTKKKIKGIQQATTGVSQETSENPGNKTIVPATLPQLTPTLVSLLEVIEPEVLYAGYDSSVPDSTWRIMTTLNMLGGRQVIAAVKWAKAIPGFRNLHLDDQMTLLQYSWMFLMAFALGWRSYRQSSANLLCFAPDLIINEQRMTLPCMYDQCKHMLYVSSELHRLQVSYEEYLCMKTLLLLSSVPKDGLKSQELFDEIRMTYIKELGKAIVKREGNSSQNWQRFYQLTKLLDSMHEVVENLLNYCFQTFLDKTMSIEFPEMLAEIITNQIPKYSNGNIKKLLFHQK

Data set [7] is described as follows: Apparent permeability in human Caco2 cells at 10 uM after 45 to 120 mins by LC/MS/MS analysis. Type of data set: ADME, cell-based. The note with it: Caco-2.

Values after ≈ are worked out from the molar mass of the structure shown.

Description for Glucocorticoid receptor: Binding affinity to recombinant human GR LBD by fluormone GS red-fluorescence polarization assay

For the compound `O=C1COc2ccc(C(=O)N3CCOc4ccccc43)cc2N1`, the solubility kinetic at 24 h in data set [1] is 15.8 µM (≈ 4.92 µg/mL). The microsomal CLint at 1 µM in data set [2] amounted to 4 µL/min/mg. In data set [3], the Ki is 1000 nM. In data set [4], this compound registered a pH-dependent lipophilicity (logD) of 2. The half-maximal inhibitory concentration (IC50) in data set [5] is 3160 nM.
The like results for `CC1CCc2ccccc2N1C(=O)c1ccc2c(c1)NC(=O)CO2` (racemic) were, in that order, 50.1 µM (≈ 16.2 µg/mL), 128 µL/min/mg, 794 nM, 2.7 and 1580 nM.
For `Cc1ccc(C2CCCCN2S(=O)(=O)c2ccc3c(c2)NC(=O)CO3)cc1` (racemic), the solubility kinetic at 24 h in data set [1] was below 0.794 µM. Also, the microsomal CLint at 1 µM in data set [2] turned out to be 120 µL/min/mg. Further, the pH-dependent lipophilicity (logD) in data set [4] is 3.3. Moreover, 6310 nM corresponded to half-maximal inhibition in data set [5] (IC50).
Turning to `O=C1COc2ccc(C(=O)N3CCCc4ccccc43)cc2N1`, the solubility kinetic at 24 h in data set [1] is 50.1 µM (≈ 15.5 µg/mL). The microsomal CLint at 1 µM in data set [2] came to 27 µL/min/mg. The compound also gave a Ki in data set [3] of 631 nM. The compound also registered a pH-dependent lipophilicity (logD) in data set [4] of 2.4. This compound showed an IC50 in data set [5] of 2000 nM.
For `CNC(=O)C[C@H]1COc2cc(C)ccc2N1C(=O)c1ccc2c(c1)NC(=O)CO2`, the hepatocyte CLint at 1 µM in data set [6] was determined as 2.8 µL/min/1e6 cells. The Ki at Glucocorticoid receptor was 316 nM; in data set [3], 3.98 nM. Also, in data set [4], the logD is 1.6. The midpoint of inhibition in data set [5], the IC50, lay at 100 nM. Besides, the apparent permeability (Papp) at 10 µM in data set [7] came out at 14 ×10⁻⁶ cm/s.
Take `CS(=O)(=O)C[C@H]1COc2cc(F)ccc2N1C(=O)c1ccc2c(c1)NC(=O)CO2`: the hepatocyte CLint at 1 µM in data set [6] was determined as 8 µL/min/1e6 cells. Moreover, the figures for the inhibition constant Ki (on Glucocorticoid receptor; in data set [3]) were 20 nM and 0.316 nM, respectively. Besides, the logD in data set [4] was 1.4. The IC50 in data set [5] is 2.51 nM. Further, in data set [7], the apparent permeability (Papp) at 10 µM came out at 10 ×10⁻⁶ cm/s.
On to `CC1CCc2ccccc2N1S(=O)(=O)c1ccc2c(c1)NC(=O)CO2` (racemic), for which the solubility kinetic at 24 h in data set [1] was 20 µM (≈ 7.15 µg/mL). The microsomal CLint at 1 µM in data set [2] was above 300 µL/min/mg. In data set [3], this compound gave a Ki of 2000 nM. This compound gave a pH-dependent lipophilicity (logD) in data set [4] of 3.3. The compound also showed an IC50 in data set [5] of 5010 nM.
The like results for `N#CC[C@H]1COc2ccccc2N1C(=O)c1ccc2c(c1)NC(=O)CO2` were, in that order, 794 µM (≈ 277 µg/mL), 34 µL/min/mg, 501 nM, 1.5 and 3980 nM.
The like results for `C[C@@H]1CCc2cc(F)ccc2N1C(=O)c1ccc2c(c1)NC(=O)CO2` were, in that order, 100 µM (≈ 34 µg/mL), 70 µL/min/mg, 6310 nM, 2.9 and above 10000 nM.
The like results for `COC(=O)C[C@H]1COc2cc(F)ccc2N1C(=O)c1ccc2c(c1)NC(=O)CO2` were, in that order, 398 µM (≈ 159 µg/mL), above 300 µL/min/mg, 63.1 nM, 2.2 and 316 nM.
